Test results taken from patent US20220401448A1, “Pharmaceutical Compositions Comprising an Inhibitor of a Histon-deacetylase (HDACi) and an Agonist of Toll-like-receptor 7 and/or 8 (TLR7 and/or TLR8) and Their Use in the Treatment of Cancer” (priority 2019, published 2022).
Values after ≈ are worked out from the molar mass of the structure shown. Like-named read-outs stand apart in the source and are kept apart here. Each block holds one molecule with its values, some of them ahead of it.

What was measured:
[1] = system: OvCa2810 primary ovarian cancer cells; assay: Individual effects (IC50), OvCa2810; type: cell-based; conditions: OvCa2810, single drug
[2] = system: Peripheral Blood Mononuclear Cells (PBMC); assay: Induction of apoptosis in PBMC from healthy volunteers; conditions: 24 h of drug exposure, 1×IC50 (SKOV3 values)
Text: The drug doses (1×IC50) employed for both compound classes were those obtained in SKOV3 cells.

[3] = system: OvCa236 primary ovarian cancer cells; assay: Individual effects (IC50), OvCa236; type: cell-based; conditions: OvCa236, single drug
[4] = system: SKOV3 ovarian cancer cell line; assay: MTT proliferation assay, single drugs, SKOV3; type: cell-based; conditions: Homo sapiens
[5] = system: SKOV3^WT ovarian carcinoma cell line; assay: Screening of SKOV3^WT for HERV expression using qPCR; type: cell-based; conditions: for ΔCt HERV Henv: untreated 15.87 ± 0.56; for ΔCt HERV KISD: untreated 17.66 ± 0.23; for ΔCt HERV Kpol: untreated 18.16 ± 0.48; for ΔCt HERV Kenv: untreated 18.49 ± 0.45; for ΔCt HERV IDDMK1.2: untreated 18.68 ± 0.41; for ΔCt KERV Kseminoma: untreated 18.90 ± 0.41; for ΔCt HERV V3.1: untreated 19.32 ± 0.41; for ΔCt HERV Kgag: untreated 19.47 ± 0.58; for ΔCt HERV Fpol: untreated 19.69 ± 0.37; for ΔCt HERV KLTR: untreated 19.91 ± 0.60; for ΔCt HERV Eenv: untreated 20.10 ± 0.51; for ΔCt HERV Wprt: untreated 20.48 ± 0.72; for ΔCt HERV FRD1: untreated 21.71 ± 0.60; for ΔCt HERV Wenv: untreated 22.12 ± 0.53; for ΔCt HERV WE1: untreated 22.12 ± 0.62; for ΔCt HERV V1: untreated 22.95 ± 1.89; for ΔCt HERV V2: untreated 23.11 ± 2.07; for ΔCt HERV Penv: untreated 25.26 ± 0.48; for ΔCt HERV Pgag: untreated 25.33 ± 0.31; for ΔCt HERV HC2pol: untreated 25.99 ± 0.57; for ΔCt HERV Ppol: untreated 26.05 ± 0.31; for ΔCt HERV C: untreated 26.20 ± 0.36; for ΔCt HERV MER34.1: untreated 27.96 ± 0.43; for ΔCt HERV T: untreated 28.36 ± 0.87; for ΔCt HERV L: untreated 28.42 ± 1.52; for ΔCt HERV Fc1: untreated 29.68 ± 0.57; for ΔCt HERV Spol: untreated 32.00 ± 0.73
Procedure: In particular, the SKOV3^WT ovarian carcinoma cell line was screened for HERV expression using quantitative PCT (qPCR). […] Gene expression was considered enforced when more than 3 PCR-cycles of difference (Untreated−Treated) was calculated (n≥3).
18S ribosomal RNA serves as standard.

[6] = system: OvCa28 primary ovarian cancer cells; assay: MTT proliferation assay, single drugs, OvCa28; type: cell-based; conditions: for resistance of primary ovarian cancer cells compared to SKOV3: OvCa28 IC50 vs SKOV3 IC50; for IC50: read-out: IC50 (cell growth)
Procedure: OvCa28 primary ovarian cancer cells were isolated from a pretreated patient (patient number 28). These primary ovarian cancer cells were treated individually with either the HDAC inhibitor Romidepsin or the TLR7 agonist Vesatolimod as shown in FIG. 4. Cell growth was determined by the MTT proliferation assay.

[7] = system: OvCar3 ovarian cancer cell line; assay: Individual effects (IC50), OvCar3; type: cell-based; conditions: Homo sapiens, OVCAR-3
NFkB activity = NFkB activity by luciferase assay (NanoLuc reporter vector with NF-κB response element); type: cell-based
Procedure: In order to make conclusions about NFkB activation, the NFkB activity was analyzed by luciferase assay. The NanoLuc® Reporter Vector with NF-κB Response Element from Promega was used for this purpose.
The pNL3.2.NF-κB-RE[NlucP/NF-κB-RE/Hygro] Vector pNL3.2. (GenBank® Accession Number JQ513377) contains five copies of an NF-κB response element (NF-κB-RE) that drives transcription of a destabilized form of NanoLuc® luciferase, an engineered small (23.3 kDa) luciferase fusion protein. The NlucP reporter consists of NanoLuc® luciferase with a C-terminal fusion to PEST, a protein destabilization domain, which responds more quickly and with greater magnitude to changes in transcriptional activity than unmodified NanoLuc® luciferase. NanoLuc® (Nluc) luciferase is a small enzyme (19.1 kDa) engineered for optimal performance as a luminescent reporter. The luminescent reaction is ATP-independent and designed to suppress background luminescence for maximal assay sensitivity.
Without stimulation we detect about 6000 RLU. […] In summary, loss of NFkB was confirmed not only by Western Blot, but also in this functional test by loss of NFkB functionality using the reporter vector with NF-κB response element.

SKOV3^WT xenograft = conditions: i.p. Romidepsin 1 mg/kg, Vesatolimod 5 mg/kg, four times at 3 day intervals
Procedure: 1 mm^3 tumor pieces were implanted subcutaneosly into six to eight week old female NMRI nude mice by minimal operative intervention. […] Three days after mice were intraperitoneally treated at doses of 1 mg/kg and 5 mg/kg body weight four times at 3 day intervals for 12 consecutive days.

[8] = common vehicles; cited from earlier work
HERV-V1 and V2 = assay: ChIP (anti-H3K9ac) with qPCR of HERV-V1 and V2; type: cell-based; conditions: SKOV3, OvCar3, OvCa236
Procedure: While the data concerning the transcriptional upregulation of HERV-V1/V2 upon HDAC inhibition were confirmed, it is unclear whether this is a direct effect of the drugs on epigenetic marks proximate to sites of HERV-V1/V2 integration. For this reason, ChIP-analyses of relevant histones were performed (ChIP=chromatin immunoprecipitation, was performed as described in Nakato R. et al. “Methods for ChIP-seq analysis: A practical workflow and advanced applications”, Methods 2020, doi.org/10.1016/j.ymeth.2020.03.005). Histone H3 along with H2A, H2B and H4 is involved in the structure of chromatin in eukaryotic cells. Histone H3 can undergo several different types of epigenetic modifications that influence cellular processes. These modifications include acetylation, phosphorylation, methylation, ubiquitination, and ADP-ribosylation and occur on the N-terminal tail domains of histone H3. […] In most species, histone H3 is primarily acetylated at lysine 9, 14, 18, and 27. […] We analyzed not only the ovarian cell lines SKOV3 and OVCar3, but also the primary cancer cell line OvCa236 derived from a patient. […] We therefore performed Immunoprecipitation using a anti-histone H3K9ac (Acetyl H3K9) polyclonal antibody and performed quantitative PCT (qPCR) as already described in Example 2.
HERV-V1 and V2, respectively, were analyzed separately. […]

SKOV3 cells = assay: Dose-response of HERV transcription by qPCR, SKOV3; conditions: FIG. 9
Text: The term ΔCt reflects the difference (Δ) in cycle (C) thresholds (t). […] Measurement of specific RNA transcripts like HERV-V1/V2 by qPCR is usually performed in relation to the standard 18S, more or less transcription products are expressed in + or −ΔCt. Furthermore, differences in ΔCt between treated and untreated cells were shown as ΔΔCt.

[9] = SK-OV-3, SKOV3, single drug, read-out: IC50
[10] = OvCar3, single drug, read-out: IC50

Molecule: C/C=C1\NC(=O)[C@H]2CSSCC/C=C/[C@H](CC(=O)N[C@H](C(C)C)C(=O)N2)OC(=O)[C@H](C(C)C)NC1=O [Romidepsin, romidepsin]
IC50 [1]: 0.006 µM
rate of apoptosis [2]: about 3%
IC50 [3]: 0.003 µM
IC50 ([4]; SK-OV-3): 0.004 µM
IC50 ([4]; SK-OV-3, read-out: IC50 (cell growth)): 0.004 µg/mL
ΔCt HERV Henv ([5]; 1x drug): 14.87 ± 0.30
ΔCt HERV KISD ([5]; 1x drug): 17.10 ± 0.35
ΔCt HERV Kpol ([5]; 1x drug): 18.19 ± 0.51
ΔCt HERV Kenv ([5]; 1x drug): 18.48 ± 0.26
ΔCt HERV IDDMK1.2 ([5]; 1x drug): 17.66 ± 0.27
ΔCt KERV Kseminoma ([5]; 1x drug): 19.70 ± 0.76
ΔCt HERV V3.1 ([5]; 1x drug): 18.63 ± 0.36
ΔCt HERV Kgag ([5]; 1x drug): 18.57 ± 0.43
ΔCt HERV Fpol ([5]; 1x drug): 19.67 ± 0.22
ΔCt HERV KLTR ([5]; 1x drug): 21.02 ± 1.95
ΔCt HERV Eenv ([5]; 1x drug): 19.99 ± 0.51
ΔCt HERV Wprt ([5]; 1x drug): 20.97 ± 1.15
ΔCt HERV FRD1 ([5]; 1x drug): 22.07 ± 0.64
ΔCt HERV Wenv ([5]; 1x drug): 22.33 ± 0.33
ΔCt HERV WE1 ([5]; 1x drug): 21.92 ± 1.02
ΔCt HERV V1 ([5]; 1x drug): 15.30 ± 0.36
ΔCt HERV V2 ([5]; 1x drug): 15.24 ± 0.25
ΔCt HERV Penv ([5]; 1x drug): 25.46 ± 0.60
ΔCt HERV Pgag ([5]; 1x drug): 26.02 ± 0.50
ΔCt HERV HC2pol ([5]; 1x drug): 24.85 ± 0.35
ΔCt HERV Ppol ([5]; 1x drug): 26.55 ± 0.39
ΔCt HERV C ([5]; 1x drug): 26.79 ± 0.97
ΔCt HERV MER34.1 ([5]; 1x drug): 25.78 ± 0.13
ΔCt HERV T ([5]; 1x drug): 29.31 ± 0.84
ΔCt HERV L ([5]; 1x drug): 27.62 ± 0.95
ΔCt HERV Fc1 ([5]; 1x drug): 28.17 ± 3.80
ΔCt HERV Spol ([5]; 1x drug): 31.04 ± 1.11
ΔCt HERV P4.6 ([5]; 1x drug, untreated […]): 31.65 ± 1.16
resistance of primary ovarian cancer cells compared to SKOV3 [6]: ~188 fold
IC50 [6]: 0.75 µg/mL (≈ 1.39 µM)
IC50 [7]: 0.007 µM

Molecule: CCCCOc1nc(N)c2c(n1)N(Cc1cccc(CN3CCCC3)c1)CC(=O)N2 [Vesatolimod, vesatolimod]
IC50 [1]: 40 µM
NFkB activity (reporter) (NFkB activity; in both cell lines, OvCar 3 and SKOV3, without stimulation about 6000 RLU): slightly reduced activity
total tumor volume (SKOV3^WT xenograft): did reduce the total tumor volume
rate of apoptosis [2]: about 8%
IC50 [3]: 32 µM
IC50 ([4]; SK-OV-3, SKOV3, single drug, MTT, read-out: IC50 (cell growth)): 12.5 µg/mL
IC50 [4, 9]: 39 µM
dissolution [8]: better dissolution profile in common vehicles
IC50 ([6]; OvCa28, single drug, MTT): 30 µg/mL (≈ 73.1 µM)
resistance of primary ovarian cancer cells compared to SKOV3 [6]: ~2 fold
IC50 [7, 10]: 32 µM

Molecule: O=C(CCCCCCC(=O)Nc1ccccc1)NO [Vorinostat, vorinostat]
expression of HERV-V1 and V2 transcripts after H3K9ac immunoprecipitation (HERV-V1 and V2): enhanced
rate of apoptosis [2]: about 6%
ΔCt HERV Henv ([5]; 1x drug): 15.51 ± 0.31
ΔCt HERV KISD ([5]; 1x drug): 17.71 ± 0.19
ΔCt HERV Kpol ([5]; 1x drug): 18.81 ± 0.30
ΔCt HERV Kenv ([5]; 1x drug): 19.26 ± 1.00
ΔCt HERV IDDMK1.2 ([5]; 1x drug): 18.29 ± 0.29
ΔCt KERV Kseminoma ([5]; 1x drug): 20.25 ± 0.18
ΔCt HERV V3.1 ([5]; 1x drug): 19.22 ± 0.33
ΔCt HERV Kgag ([5]; 1x drug): 19.17 ± 0.41
ΔCt HERV Fpol ([5]; 1x drug): 20.37 ± 0.49
ΔCt HERV KLTR ([5]; 1x drug): 19.31 ± 0.42
ΔCt HERV Eenv ([5]; 1x drug): 20.08 ± 0.25
ΔCt HERV Wprt ([5]; 1x drug): 20.80 ± 0.34
ΔCt HERV FRD1 ([5]; 1x drug): 22.51 ± 0.45
ΔCt HERV Wenv ([5]; 1x drug): 22.03 ± 0.34
ΔCt HERV WE1 ([5]; 1x drug): 22.18 ± 0.32
ΔCt HERV V1 ([5]; 1x drug): 15.48 ± 0.78
ΔCt HERV V2 ([5]; 1x drug): 15.46 ± 0.79
ΔCt HERV Penv ([5]; 1x drug): 25.39 ± 0.49
ΔCt HERV Pgag ([5]; 1x drug): 25.45 ± 0.11
ΔCt HERV HC2pol ([5]; 1x drug): 25.52 ± 0.39
ΔCt HERV Ppol ([5]; 1x drug): 26.34 ± 0.33
ΔCt HERV C ([5]; 1x drug): 27.84 ± 0.59
ΔCt HERV MER34.1 ([5]; 1x drug): 26.62 ± 0.62
ΔCt HERV T ([5]; 1x drug): 28.24 ± 0.72
ΔCt HERV L ([5]; 1x drug): 28.08 ± 0.90
ΔCt HERV Fc1 ([5]; 1x drug): 30.36 ± 0.84
ΔCt HERV Spol ([5]; 1x drug): 30.80 ± 0.75
HERV-V2 expression levels ([5]; SKOV3, qPCR, FIG. 1B): increased
expression of HERV-V1 and V2 (SKOV3 cells): increased

IC50 [1]: 500 µM
IC50 [3]: 500 µM
IC50 [4, 9]: 15 µM
IC50 [7, 10]: 23 µM
Molecule: CC(C)Cn1cnc2c(N)nc3ccccc3c21 [Imiquimod, imiquimod]
rate of apoptosis [2]: about 3%
dissolution [8]: difficult to dissolve

response of NF-κB reporter vector (NFkB activity; positive control, inflammatory stimulation): 20.000 RLU
Molecule: TNFα
